Test results as given in the supplement of paper PMC13380429.

Columns and labels:
Settings in all cases: 72 h
HepG2 [1] = experiment: relative viability EC50 (midpoint between 100% and the lowest measured viability); higher = less toxic
Calu-3 [2] = experiment: as above
U2OS [3] = experiment: as above
Vero E6 [4] = experiment: as above
Caco-2 [5] = experiment: as above
HepG2 [6] = experiment: drug sensitivity score (DSS) for viability; higher = more toxic; extreme values may be limits of the assay
Calu-3 [7] = experiment: as above
U2OS [8] = experiment: as above
Vero E6 [9] = experiment: as above
Caco-2 [10] = experiment: as above
HepG2 [11] = experiment: cell viability relative to DMSO; higher = less toxic
Calu-3 [12] = experiment: as above
U2OS [13] = experiment: as above
Vero E6 [14] = experiment: as above
Caco-2 [15] = experiment: as above

Row | Structure (SMILES) | relative viability EC50 (HepG2 [1]) [µM] | relative viability EC50 (Calu-3 [2]) [µM] | relative viability EC50 (U2OS [3]) [µM] | relative viability EC50 (Vero E6 [4]) [µM] | relative viability EC50 (Caco-2 [5]) [µM] | drug sensitivity score (HepG2 [6]) | drug sensitivity score (Calu-3 [7]) | drug sensitivity score (U2OS [8]) | drug sensitivity score (Vero E6 [9]) | drug sensitivity score (Caco-2 [10]) | cell viability (HepG2 [11]; 1 nM) [%] | cell viability (HepG2 [11]; 10 nM) [%] | cell viability (HepG2 [11]; 100 nM) [%] | cell viability (HepG2 [11]; 1000 nM) [%] | cell viability (HepG2 [11]; 10000 nM) [%] | cell viability (Calu-3 [12]; 1 nM) [%] | cell viability (Calu-3 [12]; 10 nM) [%] | cell viability (Calu-3 [12]; 100 nM) [%] | cell viability (Calu-3 [12]; 1000 nM) [%] | cell viability (Calu-3 [12]; 10000 nM) [%] | cell viability (U2OS [13]; 1 nM) [%] | cell viability (U2OS [13]; 10 nM) [%] | cell viability (U2OS [13]; 100 nM) [%] | cell viability (U2OS [13]; 1000 nM) [%] | cell viability (U2OS [13]; 10000 nM) [%] | cell viability (Vero E6 [14]; 1 nM) [%] | cell viability (Vero E6 [14]; 10 nM) [%] | cell viability (Vero E6 [14]; 100 nM) [%] | cell viability (Vero E6 [14]; 1000 nM) [%] | cell viability (Vero E6 [14]; 10000 nM) [%] | cell viability (Caco-2 [15]; 1 nM) [%] | cell viability (Caco-2 [15]; 10 nM) [%] | cell viability (Caco-2 [15]; 100 nM) [%] | cell viability (Caco-2 [15]; 1000 nM) [%] | cell viability (Caco-2 [15]; 10000 nM) [%]
1 | COc1cc2c(NC3CCN(C)CC3)nc(N3CCCN(C)CC3)nc2cc1OCCOCCN(C)C [UNC0321] | > 10 | > 10 | > 10 | > 10 | > 10 | 0 | 0 | 0 | 0 | 0 | 99.9 | 107 | 105 | 102 | 102 | 89.5 | 107 | 99 | 99.2 | 97 | 100 | 100 | 98.3 | 102 | 97.6 | 99.7 | 104 | 104 | 97 | 96.9 | 105 | 94 | 102 | 102 | 100
2 | CC(C)(C)C#Cc1cc(N(C(=O)[C@H]2CC[C@H](C)CC2)[C@H]2CC[C@@H](O)CC2)c(C(=O)O)s1 [VX-222] | > 10 | > 10 | > 10 | > 10 | > 10 | 0 | 0 | 0 | 0 | 0 | 98.7 | 101 | 91.7 | 96.2 | 101 | 92.5 | 94.9 | 99.2 | 99.3 | 104 | 105 | 106 | 98.2 | 105 | 97.6 | 104 | 96.1 | 106 | 99.8 | 102 | 103 | 114 | 102 | 99.8 | 101
3 | CC[C@]12C=CCN3CC[C@@]4(c5cc([C@@]6(C(=O)OC)C[C@@H]7C[C@@H](C(C)(F)F)CN(Cc8c6[nH]c6ccccc86)C7)c(OC)cc5N(C)[C@H]4[C@@](O)(C(=O)OC)[C@@H]1OC(C)=O)[C@@H]32 [Vinflunine Ditartrate] | 0.0789 | 0.655 | 0.493 | 1.04 | 0.213 | 17 | 6.8 | 11.3 | 8.8 | 10.9 | 107 | 95.1 | 61.2 | 32.8 | 34.3 | 108 | 101 | 90.2 | 69.3 | 45.9 | 101 | 98.1 | 87.5 | 48.6 | 23.1 | 102 | 99.5 | 103 | 64.1 | 24.3 | 88.1 | 104 | 77.4 | 55.2 | 41.2
4 | COc1ccc(N(C(=O)Oc2c(C)cccc2C)c2ccnc(Nc3ccc(N4CCN(C)CC4)cc3)n2)c(OC)c1 [WH-4-023] | > 10 | > 10 | > 10 | > 10 | > 10 | 0 | 0 | 0 | 0.2 | 0 | 92.7 | 91.9 | 93.2 | 100 | 101 | 93.3 | 104 | 95.8 | 104 | 89.8 | 101 | 96.8 | 98.1 | 107 | 99.8 | 95.4 | 97.4 | 96.7 | 93.7 | 84.8 | 101 | 89.4 | 102 | 114 | 103
5 | CCOc1ccc(S(=O)(=O)O)c2cccnc12 [actinoquinol] | > 10 | > 10 | > 10 | > 10 | > 10 | 0 | 0 | 0 | 0 | 0 | 91 | 101 | 95.1 | 98.5 | 110 | 99.4 | 99.4 | 99 | 99.8 | 99.1 | 96.3 | 98.1 | 94 | 94.6 | 95.5 | 95.4 | 90.2 | 92.5 | 95.1 | 101 | 91.1 | 78 | 87.3 | 102 | 95.1
6 | NCCCC(O)(P(=O)(O)O)P(=O)(O)O [alendronate] | > 10 | > 10 | > 10 | > 10 | > 10 | 0.1 | 0 | 0 | 0 | 0 | 101 | 91.7 | 107 | 95.4 | 88.8 | 85.5 | 103 | 92.3 | 107 | 98.5 | 96.6 | 103 | 94.8 | 104 | 97.7 | 102 | 98.5 | 106 | 103 | 106 | 97.4 | 102 | 96.9 | 99.8 | 94.3
7 | Cc1[nH]cnc1CN1CCc2c(c3ccccc3n2C)C1=O [alosetron] | > 10 | > 10 | > 10 | > 10 | > 10 | 3.7 | 0 | 0 | 0 | 0 | 111 | 93.7 | 83.9 | 89.1 | 94.4 | 102 | 93.5 | 102 | 91.7 | 106 | 98.2 | 95.6 | 104 | 96.9 | 99.5 | 99.3 | 94.5 | 93.1 | 96.5 | 97 | 101 | 98.7 | 95.6 | 104 | 109
